Source: PMC7736868, “Fluorescent ligands for dopamine D2/D3 receptors” (Scientific Reports, 2020)

Columns and labels:
secNluc-D3R [1] = biological target: T1, secNluc-D3R (UniProt P35462+Q9GV45, A31E/A60N/A81I/F95D/I117V/K70R/L54V/L99Q/M102K/N193R/P142E/Q151K/Q38R/Q45L/V71I/Y165I); assay: Membrane-based NanoBRET saturation binding; details: membranes from HEK293T cells expressing secNluc-D3R; KD ± SEM
Description: . After addition of furimazine (1:5,000, final volume 35 µL), and 5 min incubation at room temperature in the dark, BRET readings were obtained using a CLARIOstar plate reader equipped with a 475/30 nm donor together with a 535/30 nm (for 10a) or 620/30 nm (for 10b) acceptor emission filter. […]. Kinetic assays were monitored at room temperature and minimal possible cycle time of the CLARIOstar was used for each measurement. Data was fitted to one phase association and dissociation equations in PRISM6.0 to determine the kinetic constants. In competition binding experiments, membranes were incubated with serial dilutions of unlabeled ligands and the fluorescent ligand 10a (10 or 100 nM) for 90 min at 37 °C. Addition of furimazine (1:5,000) and BRET measurements were carried out as described above. Data analysis was performed using the one site—fit Ki equation in PRISM6.0 to determine the inhibition constants (Ki) of the unlabeled ligands.
Supplementary Fig. 4. NanoBRET saturation curves obtained with ligands 10a,b and membranes from HEK293T expressing secNluc- D3R. […]
calculated as the difference between total and non- specific binding . BRET was measured after 90 min incubation at 37 °C and represents mean ± SD of an individual representative out of 3 – 4 independent experiments, with each condition in triplicate. […]

secNluc-D3R [2] = biological target: T1, secNluc-D3R; assay: Live-cell NanoBRET saturation binding, HEK293T cells
Description: Figure 5 NanoBRET saturation curves for the fluorescent ligands 10a-c. Saturation binding experiments were performed with live HEK293T cells expressing secNluc-D3R and the fluorescent ligands 10a, 10b and 10c, comprising a trifluorethyl-rhodamine derivative, a Cy3B and an Alexa488 fluorophore, respectively. […] Data points show mean ± SEM of one representative out of n = 5 (for 10a) or n = 4 (for 10b,c) experiments, with each condition carried out in triplicate. The netBRET signal was calculated as the difference between total BRET and the signal obtained in the absence of a fluorescent ligand.
For whole cell NanoBRET saturation assays, HEK293T cells were transfected with secNluc-D3R employing Mirus TransIT-293 (3:1 reagent to DNA ratio). After 24 h at 37 °C, 5% CO2, cells were detached using Versene and transferred to white, F-bottom 384-well plates at a density of 2,500 cells/well and incubated for another 24 h at 37 °C, 5% CO2. Cells were washed with PBS and incubated for 30 min at 37 °C with 5% FBS in DMEM without phenol red, before the fluorescent ligands (5 µL, diluted into DMEM without phenol red with 5% FBS from a 1 mM DMSO-stock) were added. […] After 1 h incubation with the ligands at 37 °C, furimazine (Promega, final dilution 1:500 to 1:2,500) was added, followed by a 5 min incubation at room temperature in the dark. BRET was measured as the ratio of acceptor fluorescence and donor luminescence employing a CLARIOstar microplate reader equipped with 475/30 nm and 535/30 or 580/30 emission filters, respectively. Total, non-specific and specific binding were analyzed employing the algorithms for one-site saturation binding implemented in PRISM6.0 or 8.0.

[3] = read-out: KD NanoBRET saturation; live HEK293T cells expressing secNluc-D3R; KD ± SEM

T1 sequence (Q9GV45+P35462 fused with the stated changes): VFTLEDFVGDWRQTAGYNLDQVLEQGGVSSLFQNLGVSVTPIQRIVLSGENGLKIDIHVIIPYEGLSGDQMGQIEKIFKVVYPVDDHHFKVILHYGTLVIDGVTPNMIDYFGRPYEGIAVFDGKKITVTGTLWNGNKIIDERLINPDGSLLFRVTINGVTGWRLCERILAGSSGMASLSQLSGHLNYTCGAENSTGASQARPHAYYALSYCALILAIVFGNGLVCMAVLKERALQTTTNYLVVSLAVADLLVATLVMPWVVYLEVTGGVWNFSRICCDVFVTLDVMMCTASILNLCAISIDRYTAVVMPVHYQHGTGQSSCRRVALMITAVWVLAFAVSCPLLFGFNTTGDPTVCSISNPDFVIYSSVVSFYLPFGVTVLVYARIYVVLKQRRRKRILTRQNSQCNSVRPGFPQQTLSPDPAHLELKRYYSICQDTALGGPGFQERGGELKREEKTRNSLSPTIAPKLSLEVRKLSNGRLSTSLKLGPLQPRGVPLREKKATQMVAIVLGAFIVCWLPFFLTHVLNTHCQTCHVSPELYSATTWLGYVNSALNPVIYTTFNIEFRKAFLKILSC

Structure (SMILES) | Kd (secNluc-D3R [1]) [nM] | Kd (secNluc-D3R [2]; live HEK293T cells expressing secNluc-D3R; KD ± SEM; read-out: KD NanoBRET saturation) [nM] | Kd (secNluc-D3R [2]; [3]) [nM]
CCCN(CCCCc1cn(-c2ccc(CNC(=O)c3ccc(-c4c5ccc(=NCC(F)(F)F)cc-5oc5cc(NCC(F)(F)F)ccc45)c(C(=O)O)c3)cc2)nn1)C1Cc2ccccc2C1 [10a] | 0.9 ± 0.14 | 0.72 ± 0.07 | –
CCCN(CCCCc1cn(-c2ccc(C(=O)NCCCNC(=O)Cc3ccc4c(c3)C(C)(C)C3=C5C=C6C7=[N+](CCC6OC5CCN34)c3ccc(S(=O)(=O)[O-])cc3C7(C)C)cc2)nn1)C1Cc2ccccc2C1 (centres unmarked) [10b] | 11.3 ± 1.6 | – | 12.1 ± 1.7
CCCN(CCCCc1cn(-c2ccc(C(=O)NCCCNC(=O)c3ccc(-c4c5ccc(=N)c(S(=O)(=O)O)c-5oc5c(S(=O)(=O)O)c(N)ccc45)c(C(=O)O)c3)cc2)nn1)C1Cc2ccccc2C1 [10c] | – | – | 0.72 ± 0.08
